In patent publication US20250002492A1, “COMPOSITIONS OF FOLATE ABSORPTION INHIBITORS AND METHODS THEREOF” (THE TEXAS A&M UNIVERSITY SYSTEM, priority 2023, published 2025):

Tested on: C. elegans strain N2
Assay: Lifespan assay in worms
Format: in vivo
Excerpt: The ability of pharmacological or other interventions to extend the lifespan of different organisms is often conserved. For the instant example, the disclosed compounds can be tested for their ability to extend the lifespan of the worm model system Caenorhabditis elegans (N2 strain) [see, e.g., PMID: 19488025]. The organisms can be first exposed to the compounds as adults, 2-3 days after the egg stage until their death, on solid media containing the compounds at the desired concentration. The temperature can be kept constant at 20° C. throughout the assays. The bacteria used as food for the worms (Escherichia coli strain OP-50) can be dead (e.g., killed by lethal doses of ultraviolet radiation) to ensure that any effects on lifespan are not indirect, mediated through bacterial metabolism.
The assays were performed at 20° C. using C. elegans strain N2 and a bacterial strain (OP50) commonly used as food for the worms. Briefly, the assays were performed on solid agar nematode growth media (NGM) plates prepared fresh before each experiment. The bacterial lawn was exposed twice to a UV dose of 120 mJ/cm^2 using a UVC-515 Ultraviolet Multilinker (Ultra-Lum, Inc.). Streaking these UV-exposed bacteria to fresh LB agar plates (1% w/v tryptone, 0.5% w/v yeast extract, 1% w/v sodium chloride) produced no visible colonies. Methotrexate, or the ATIC inhibitor, was first dissolved in DMSO and then added to the media used to prepare the plates after autoclaving (the media were kept in a 50° C. water bath until the plates were poured). Mock-treated control plates contained only DMSO. At the start of each experiment, a sufficient number of eggs were collected from plates without any drugs and then placed on plates containing the indicated doses of each compound tested. After hatching and progression to the adult stage, animals were transferred to new plates (marked as the start of the lifespan assay) containing the drug tested and fluorodeoxyuridine (FUDR; dissolved in water), added at 50 μM to block hatching of new animals. The plates were scored at least every other day until all the worms died. If an animal responded to gentle touch, it was scored as alive, otherwise a death was recorded, and the animal was removed from the plate. Worms were transferred to fresh plates as needed (e.g., if there was evidence of microbial contamination, dryness/cracks on the agar surface, consumption of the bacterial lawn, or hatching of new animals that escaped the FUDR block). The reported lifespans were compiled from several independent experiments done over several months (9-10 months for the methotrexate experiments and 4-5 months for the ATIC inhibitor), each scored by multiple individuals (4-5 persons per experiment). No experiments were excluded from the analysis.

CC(=O)N1CCC(C(=O)N2CCN3C(=O)c4cc(-c5ccccc5)ccc4NC(=O)C3C2)CC1 (stereo not drawn) [MPOL_B_1, 2-(1-acetylpiperidine-4-carbonyl)-8-phenyl-1,3,4,12a-tetrahydrobenzo[e]pyrazino[1,2-a][1,4]diazepine-6,12(2H,11H)-dione]
lifespan effect relative to the effect of methotrexate (same worm assay): 2-3 times
extension of maximal lifespan (worms, 50 and 100 μM): ~30%
extension of mean lifespan (worms, 50 and 100 μM): ~30%
